Results from patent publication US20150209384A1, “ORAL PREPARATION FOR PROMOTING EXPRESSION OF TGF-BETA, ORAL PREPARATION FOR INHIBITING PRODUCTION OF PAIN-MEDIATING SUBSTANCE, AND ORAL PREPARATION FOR PREVENTING EDEMA” (KEWPIE CORPORATION, priority 2012, published 2015).

Key:
[1] = test system: PGE2; assay: Measurement of PGE2 in paw exudate (ELISA), rat carrageenan model; assay type: in vivo; details: vs negative control; for total amount of PGE2 in exudate: FIG. 7; for concentration of PGE2 in exudate: FIG. 8
Experimental: (§1) Rats (Wistar (SPF), male, four-weeks-old at the time of purchase, purchased from Japan SLC, Inc.) were acclimatized and fed for 7 days, and then grouped based on their body weights on the day before administration. The above-mentioned test solution was administered by drinking ad libitum for 4 weeks. After the administration by drinking for 4 weeks, the rats were selected and grouped so that there was no difference in body weight between groups at the time of carrageenan induction (see Table 1), and then the rats were each used for a pain model to be described later.
(§2) A rat pain model was produced by subcutaneously injecting 0.1 mL of a 1% A-carrageenan (manufactured by SIGMA) solution into the plantar surface of the rat hind paw with reference to methods of Ohuchi et al. (Kazuo Ohuchi, “Seibutsu Yakkagaku Jikken Koza (Biological pharmaceutical science experimental course) (Vol. 12) Inflammation and Allergy I-1”, Chapter 1, foreign matter-induced inflammation model: pp. 30-51) and Masahiro Noguchi et al. (Masahiro Noguchi, et al: Enzymologic and pharmacologic profile of loxoprofen sodium and its metabolites. Biol. Pharm. Bull. 2005.28.2075-2079). It should be noted that the 1% λ-carrageenan solution was stirred with a stirrer until immediately before use (induction). After that, a paw volume was measured using a paw volume measuring apparatus. In addition, blood was collected from the rat pain model under isoflurane anesthesia. After that, an exudate was collected from the hind paw, and the measurement of PGE2 and bradykinin in the exudate was performed.
(§3) A 15-mL centrifugation tube, which had been measured for its tare weight in advance, was prepared, and a container having a 2-mL pipette tip cut at the tip in the centrifugation tube was prepared. The induced paw of the animal after the end of the blood collection was amputated from 1 cm above the malleolus using bone scissors or the like, and measured for its weight. The skin at the plantar site of the rat was deeply incised using a scalpel to make 2 incisions in a length direction by 4 incisions in a width direction which is perpendicular to the length direction. This paw skin tissue was placed with the toe down into the above-mentioned container, and cooling centrifugation was performed using a centrifugation machine at 3,000 rpm for 15 minutes to collect an exudate. In addition, in a non-treated group, the collection was performed from the left and right hind paws. The mass of the collected exudate was measured using an electrobalance. To the exudate after the end of the mass measurement were added 100 μL of 20 mM aspirin-containing physiological saline and 250 μL of 20 unit/mL heparin-containing physiological saline, the resultant was centrifuged, and then the supernatant was used as an exudate sample. In addition, the exudate was dispensed into a tube. The exudate sample was frozen with liquid nitrogen and cryopreserved until use.
The measurement of PGE2 (ELISA) in the exudate was performed using “Prostaglandin E2 Kit-Monoclonal, ACE.” The operations were performed in conformity with the accompanying protocol of the kit.

[2] = test system: rat carrageenan-induced inflammatory pain model; assay: Rat carrageenan-induced inflammatory pain model: paw edema, paw volume, exudate amount; assay type: in vivo; details: for paw edema: vs negative control (distilled water), hyaluronic acid 200 mg/kg/day by drinking for 4 weeks, ibuprofen 100 mg/kg oral 1 hour before induction, FIG. 1; for exudate amount of the paw: FIG. 3
Experimental: Rats (Wistar (SPF), male, four-weeks-old at the time of purchase, purchased from Japan SLC, Inc.) were acclimatized and fed for 7 days, and then grouped based on their body weights on the day before administration. The above-mentioned test solution was administered by drinking ad libitum for 4 weeks.
It should be noted that the 1% λ-carrageenan solution was stirred with a stirrer until immediately before use (induction). After that, a paw volume was measured using a paw volume measuring apparatus. In addition, blood was collected from the rat pain model under isoflurane anesthesia. After that, an exudate was collected from the hind paw, and the measurement of PGE2 and bradykinin in the exudate was performed.
The tuberal region of the pisiform bone outside the rat right hind paw was marked with marking ink so that volume measurement was uniform. Distilled water was charged up to a target water surface of a measuring chamber of the paw volume measuring apparatus. A measurer restrained the rat, and while lightly pressing the femoral region of the paw to be measured, put the paw at a position at which the mark leveled off and reached the target water surface. Then, a paw volume was recorded using a foot switch connected to the apparatus. It should be noted that the measurement of the paw volume was performed three times for each animal individual, and a mean thereof was determined.
Regarding a measured value for the paw volume, an amount of change Δ mL was determined from the following calculation equation for each individual animal, and a group mean and its standard error (SE) were calculated.
Amount of change A mL=Value at the time of each measurement after carrageenan administration−Value before (0 hours after) carrageenan administration
as §3

[3] = test system: IL-10; assay: Measurement of IL-10 in plasma, rat carrageenan model; assay type: in vivo; details: oral hyaluronic acid 200 mg/kg/day 4 weeks
Experimental: as §1
(§4) The rat pain model under anesthesia with isoflurane (manufactured by Mylan Pharmaceuticals, Inc.) was subjected to abdominal section, and blood was collected through the caudal vena cava of the abdomen. A 5-mL disposable injection syringe filled with heparin sodium (Wako Pure Chemical Industries, Ltd.) and a 22-G injection needle were used for the blood collection. Plasma was rapidly separated from the collected blood using a centrifuge, dispensed into a tube, and cryopreserved until use.
The measurement of IL-10 in plasma was performed using “Quantikine Rat IL-10 (R & D Systems, Inc.).” The operations were performed in conformity with the accompanying protocol of the kit.

[4] = Measurement of concentration of hyaluronic acid in plasma; assay type: in vivo, rat
Experimental: as §1, §4
The measurement of the concentration of hyaluronic acid in plasma was performed using “Hyaluronan Assay Kit (Seikagaku Biobusiness Corporation).”
The concentrations of hyaluronic acid in plasma of the negative control (distilled water-administered group) and the test solution-administered group were measured. The concentrations of hyaluronic acid in plasma were measured before carrageenan induction and 6 hours and 8 hours after carrageenan induction.

[5] = test system: TGF-β1; assay: Measurement of TGF-β1 in plasma (ELISA), rat carrageenan model; assay type: in vivo; details: 6 hours after carrageenan induction, FIG. 4
Experimental: as §1
A rat pain model was produced by subcutaneously injecting 0.1 mL of a 1% A-carrageenan (manufactured by SIGMA) solution into the plantar surface of the rat hind paw with reference to methods of Ohuchi et al. (Kazuo Ohuchi, “Seibutsu Yakkagaku Jikken Koza (Biological pharmaceutical science experimental course) (Vol. 12) Inflammation and Allergy I-1”, Chapter 1, foreign matter-induced inflammation model: pp. 30-51) and Masahiro Noguchi et al. (Masahiro Noguchi, et al: Enzymologic and pharmacologic profile of loxoprofen sodium and its metabolites. Biol. Pharm. Bull. 2005.28.2075-2079). It should be noted that the 1% λ-carrageenan solution was stirred with a stirrer until immediately before use (induction). After that, a paw volume was measured using a paw volume measuring apparatus. […]

[6] = test system: bradykinin; assay: Measurement of bradykinin in paw exudate (EIA), rat carrageenan model; assay type: in vivo; details: for total amount of bradykinin in exudate: vs negative control, FIG. 5
Experimental: as §1, §2, §3
The measurement of bradykinin in the exudate was performed using “Bradykinin, EIA Kit, High Sensitivity, Bachem Americans.” The operations were performed in conformity with the accompanying protocol of the kit.

[7] = test system: TGF-β1 mRNA in human colon adenocarcinoma-derived HT29 cells; assay: TGF-β expression promoting action in HT29 cells (TGF-β1 mRNA, real-time PCR); assay type: cell-based; details: hyaluronic acid 0.01 mg/ml, LPS 200 ng/mL added 1 hour later, 24 hours after addition of hyaluronic acid, control = 1, FIG. 11
Experimental: In order to confirm the TGF-β expression promoting action of hyaluronic acid in human colon adenocarcinoma-derived HT29 cells (purchased from DS Pharma Biomedical Co., Ltd.), the measurement of the production amount of TGF-β mRNA in the case of treating HT29 cells with hyaluronic acid was performed by the following method.
Hyaluronic acid was added to a culture supernatant, and 1 hour after that, a lipopolysaccharide (LPS) was added at a concentration of 200 ng/mL. 23 hours after that, mRNA of cells was collected, and the determination of TGF-β1 mRNA using real-time PCR equipment (Mx 3005, Agilent Technologies) was performed. First, cDNA was synthesized from mRNA by reverse transcription, and a PCR reaction was performed using the cDNA. That is, an amplification reaction involving repeating thermal denaturation (95° C., 10 seconds) and annealing (60° C., 20 seconds) 40 times was performed, and simultaneously, DNA amplification was measured by monitoring fluorescence from CybrGreen to be conjugated with DNA, and determination in the case of defining the mRNA amount of a control as 1 was performed. The human TGF-31 primers used were designed with the software Primer BLAST made available to the public by the National Center for Biotechnology Information (NCBI). Their sequences are 5′-[…]-3′ (Forward) and 5′-[…]-3′ (Reverse). […]

[8] = 6 hours after carrageenan induction
[9] = 6 hours after carrageenan induction, vs negative control, hyaluronic acid 200 mg/kg/day 4 weeks, ibuprofen 100 mg/kg oral
[10] = 6 hours after carrageenan induction, vs negative control (distilled water), FIG. 6
[11] = 3 hours after carrageenan induction

Compound | total amount of PGE2 in exudate [1, 8] | concentration of PGE2 in exudate [1, 8] | paw edema [2, 8] | paw volume ([2]; 6 hours after carrageenan induction, vs negative control, hyaluronic acid 200 mg/kg/day 4 weeks, ibuprofen 100 mg/kg oral, FIG. 2) | exudate amount of the paw [2, 9] | increase in IL-10 in plasma [3] | concentration of hyaluronic acid in plasma ([4]; 6 hours after carrageenan induction, FIG. 9) | concentration of hyaluronic acid in plasma ([4]; 8 hours after carrageenan induction, FIG. 9) | concentration of hyaluronic acid in plasma ([4]; before carrageenan induction, after continuous ingestion for 4 weeks (200 mg/kg/day), FIG. 9 left panel) | concentration of TGF-β in plasma compared to positive control (ibuprofen) ([5]; same timing) | concentration of TGF-β in plasma ([5]; hyaluronic acid 200 mg/kg/day 4 weeks) | concentration of bradykinin in exudate ([6]; 3 hours after carrageenan induction, vs distilled water group, FIG. 6) | concentration of bradykinin in exudate compared to positive control (ibuprofen) ([6]; 3 hours and 6 hours after carrageenan induction, FIG. 6) | concentration of bradykinin in exudate [6, 10] | total amount of bradykinin in exudate [6, 8] | total amount of PGE2 in exudate [1, 11] | concentration of PGE2 in exudate [1, 11] | exudate amount of the paw ([2]; 3 hours after carrageenan induction, vs negative control, ibuprofen 100 mg/kg oral) | total amount of bradykinin in exudate [6, 11] | amount of TGF-β1 mRNA relative to control (no addition of hyaluronic acid) [7] [times]
hyaluronic acid [listing 1 of 2 here] | significantly smaller than that in the negative control | significantly smaller than that in the negative control | milder than in the negative control | significantly smaller than that in the negative control | smaller than that in the negative control | not observed | almost no change | almost no change | did not cause any change | higher than the concentration of TGF-β in the positive control | increased remarkably | significantly smaller than those in the distilled water group | lower than those in the positive control | significantly smaller than those in the distilled water group | significantly smaller than that in the negative control | – | – | – | – | –
CC(C)Cc1ccc(C(C)C(=O)O)cc1 (centres unmarked) [ibuprofen, reference compound] | smaller than those in the negative control (statistically significant 6 hours after carrageenan induction) | significantly smaller than those in the negative control | milder than in the negative control | – | significantly smaller than those in the negative control | – | – | – | – | – | – | – | – | significantly smaller concentration of bradykinin than that in the negative control | smaller than those in the negative control (statistically significant 6 hours after carrageenan induction) | smaller than those in the negative control | significantly smaller than those in the negative control | significantly smaller than those in the negative control | smaller than those in the negative control | –
hyaluronic acid [listing 2 of 2 here] | – | – | – | – | – | – | – | – | – | – | – | – | – | – | – | – | – | – | – | 2.14
